Measurements reported in patent US8614219B2, “Substituted pyrimidin-4-one derivatives” (Sanofi-aventis, priority 2008, dated 2013).

Biological target: GSK3β (Homo sapiens, UniProt P49841)
Assay: Inhibitory activity against GSK3β (33P-ATP phosphorylation of prephosphorylated GS1 peptide, four protocols)
Assay type: biochemical
Details: protocol 4: commercial GSK3beta (Millipore), 7.5 μM GS1 peptide, 10 μM ATP, 50 mM Hepes pH 7.2, 90 minutes at room temperature
Description: Four different protocols can be used. In a first protocol: 7.5 μM of prephosphorylated GS1 peptide and 10 μM ATP (containing 300,000 cpm of ^33P-ATP) were incubated in 25 mM Tris-HCl, pH 7.5, 0.6 mM DTT, 6 mM MgCl2, 0.6 mM EGTA, 0.05 mg/ml BSA buffer for 1 hour at room temperature in the presence of GSK3beta (total reaction volume: 100 microliters). In a second protocol: 4.1 μM of prephosphorylated GS1 peptide and 42 μM ATP (containing 260,000 cpm ^33P-ATP) were incubated in 80 mM Mes-NaOH, pH 6.5, 1 mM Mg acetate, 0.5 mM EGTA, 5 mM 2-mercaptoethanol, 0.02% Tween 20, 10% glycerol buffer for 2 hours at room temperature in the presence of GSK3beta. In a third protocol: 7.5 μM of prephosphorylated GS1 peptide and 10 μM ATP (containing 300,000 cpm of ^33P-ATP) were incubated in 50 mM Hepes, pH 7.2, 1 mM DTT, 1 mM MgCl2, 1 mM EGTA, 0.01% Tween 20 buffer for one hour at room temperature in the presence of GSK3beta (total reaction volume: 100 microliters). In a fourth protocol: 7.5 μM of prephosphorylated GS1 peptide and 10 μM ATP (containing 300,000 cpm of ^33P-ATP) were incubated in 50 mM Hepes, pH 7.2, 1 mM DTT, 1 mM MgCl2, 1 mM EGTA, 0.01% Tween 20 buffer for 90 minutes at room temperature in the presence of commercial GSK3beta (Millipore) (total reaction volume: 100 microliters). Inhibitors were solubilized in DMSO (final solvent concentration in the reaction medium, 1%). The reaction was stopped with 100 microliters of a solution made of 25 g polyphosphoric acid (85% P2O5), 126 ml 85% H3PO4, H2O to 500 ml and then diluted to 1:100 before use. An aliquot of the reaction mixture was then transferred to Whatman P81 cation exchange filters and rinsed with the solution described above. Incorporated ^33P radioactivity was determined by liquid scintillation spectrometry. The phosphorylated GS-1 peptide had the following sequence: NH2-[…](P)EDEE-COOH. (Woodgett, J. R. (1989) Analytical Biochemistry 180, 237-241.

Chain of GSK3β (P49841 whole entry): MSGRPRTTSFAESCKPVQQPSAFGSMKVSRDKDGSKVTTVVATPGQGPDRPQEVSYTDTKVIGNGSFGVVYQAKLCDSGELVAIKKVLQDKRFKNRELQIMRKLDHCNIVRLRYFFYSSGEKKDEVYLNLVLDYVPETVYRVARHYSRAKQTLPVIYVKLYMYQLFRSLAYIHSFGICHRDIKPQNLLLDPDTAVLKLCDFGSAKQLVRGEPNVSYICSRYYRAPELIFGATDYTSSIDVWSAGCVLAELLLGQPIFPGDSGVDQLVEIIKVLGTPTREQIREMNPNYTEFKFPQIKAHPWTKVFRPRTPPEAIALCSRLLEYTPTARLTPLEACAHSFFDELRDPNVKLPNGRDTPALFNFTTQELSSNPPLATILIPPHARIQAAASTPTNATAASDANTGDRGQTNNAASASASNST

IC50 | SMILES
27 nM | COc1ccccc1NC(=O)C1CCCn2c1nc(-c1ccncn1)cc2=O (racemic) [compound No. 1 of table 1, (+/−)-4-oxo-2-pyrimidin-4-yl-6,7,8,9-tetrahydro-4H-pyrido[1,2-a]pyrimidine-9-carboxylic acid N-(2-methoxy-phenyl)-amide]
30 nM | COc1cc(Cl)ccc1C(=O)NCC1CCCCn2c1nc(-c1ccncn1)cc2=O (racemic) [compound No. 2 of table 2, (+/−)-4-Chloro-2-methoxy-N-(4-oxo-2-pyrimidin-4-yl-4,6,7,8,9,10-hexahydro-pyrimido[1,2-a]azepin-10-ylmethyl)-benzamide]
19 nM | COc1cc(Cl)ccc1C(=O)NCC1CCCn2c1nc(-c1ccncn1)cc2=O (racemic) [compound No. 8 of table 1, (+/−)-4-Chloro-2-methoxy-N-(4-oxo-2-pyrimidin-4-yl-6,7,8,9-tetrahydro-4H-pyrido[1,2-a]pyrimidin-9-ylmethyl)-benzamide]
